Columns and labels:
MIAPACA2T2 cells [1] = assay: CellTiter-Glo viability and CalcuSyn synergy, PRMT5 inhibitor + sotorasib, 6 days; details: for Combination Fa: 8640 min
MIAPACA2 cells = assay: CellTiter-Glo viability and CalcuSyn synergy, PRMT5 inhibitor + sotorasib, 6 days (Example 15); format: cell-based; design: key: CI<1 synergy, CI=1 additivity, CI>1 antagonism
Protocol: (§1) Raw luminescent values were converted to fraction affected (Fa) with the following equation: […]
Synergy analysis was performed using the CalcuSyn software to determine CI scores based on the drug concentrations used and corresponding Fa values. Results are shown in Table 24 below. *CI Values (Calcusyn): CI<1 indicates synergy. C=1 indicates additivity. C>1 indicates antagonism.

LU99 NSCLC xenografts = assay: Tumor growth inhibition, LU99 NSCLC xenografts (Example 12); format: in vivo, Female NOD/SCID mice; details: Compound B 100 mg/kg orally once daily + sotorasib 100 mg/kg; versus either single agent alone
Description: 10 Female NOD/SCID mice were implanted with LU99 NSCLC tumor xenografts. Mean tumor volumes for each grouping were between 100-200 mm^3. […] Plotted data represents the TGI (tumor growth inhibition), n=10 for each group.

PSN1 cells = assay: CellTiter-Glo viability and CalcuSyn synergy, PRMT5 inhibitor + KIF18A, 6 days; details: for Combination Fa: 8640 min
H292 cells = assay: CellTiter-Glo viability and CalcuSyn synergy, PRMT5 inhibitor + palbociclib, 6 days; details: for Combination Fa: 8640 min
UM-UC-3 cells = assay: CellTiter-Glo viability and CalcuSyn synergy, PRMT5 inhibitor + sotorasib, 6 days; format: cell-based; details: for Combination Fa: 8640 min
Protocol: as §1
Synergy analysis was performed using the CalcuSyn software to determine CI scores based on the drug concentrations used and corresponding Fa values. Results are shown in Table 6 below. *CI Values (Calcusyn): Strong Synergism: 0.1-0.3; Synergism: 0.3-0.7; Moderate Synergism: 0.7-0.85; Slight Synergism: 0.85-0.9; Nearly Additive: 0.9-1.1.

MIAPACA2T2 cells [2] = assay: CellTiter-Glo viability and CalcuSyn synergy, PRMT5 inhibitor + KIF18A, 6 days; details: for Combination Fa: 8640 min
[3] = Compound B 0.4374 μM + sotorasib 0.00596 μM
[4] = Compound B 0.4374 μM + sotorasib 0.009537 μM
[5] = Compound B 0.4374 μM + sotorasib 0.015259 μM
[6] = Compound B 0.4374 μM + sotorasib 0.024414 μM
[7] = Compound B 0.4374 μM + sotorasib 0.039063 μM
[8] = Compound B 0.4374 μM + sotorasib 0.0625 μM
[9] = Compound B 0.4374 μM + sotorasib 0.1 μM
[10] = Compound B 0.0384 μM + KIF18A 0.003951 μM
[11] = Compound B 0.0384 μM + KIF18A 0.005926 μM
[12] = Compound B 0.0384 μM + KIF18A 0.008889 μM
[13] = Compound B 0.0384 μM + KIF18A 0.013333 μM
[14] = Compound B 0.0384 μM + KIF18A 0.02 μM
[15] = Compound B 0.0384 μM + KIF18A 0.03 μM
[16] = Compound B 0.0384 μM + KIF18A 0.045 μM
[17] = Compound B 0.0425 μM + palbociclib 0.044102 μM
[18] = Compound B 0.0425 μM + palbociclib 0.079383 μM
[19] = Compound B 0.0425 μM + palbociclib 0.14289 μM
[20] = Compound B 0.0425 μM + palbociclib 0.257202 μM
[21] = Compound B 0.0425 μM + palbociclib 0.462963 μM
[22] = Compound B 0.0425 μM + palbociclib 0.833333 μM
[23] = Compound B 0.0425 μM + palbociclib 1.5 μM
[24] = Compound B 0.2916 μM + sotorasib 0.00298 μM
[25] = Compound B 0.2916 μM + sotorasib 0.004768 μM
[26] = Compound B 0.2916 μM + sotorasib 0.007629 μM
[27] = Compound B 0.2916 μM + sotorasib 0.012207 μM
[28] = Compound B 0.2916 μM + sotorasib 0.019531 μM
[29] = Compound B 0.2916 μM + sotorasib 0.03125 μM
[30] = Compound B 0.2302 μM + KIF18A 0.021256 μM
[31] = Compound B 0.2302 μM + KIF18A 0.040386 μM
[32] = Compound B 0.2302 μM + KIF18A 0.076734 μM
[33] = Compound B 0.2302 μM + KIF18A 0.145794 μM
[34] = Compound B 0.2302 μM + KIF18A 0.277008 μM
[35] = Compound B 0.2302 μM + KIF18A 0.526316 μM
[36] = Compound B 0.2302 μM + KIF18A 1 μM

## Cc1cc2cc(C(=O)N(Cc3ccc(C(F)(F)F)cn3)[C@@H](C)c3ncccn3)ccc2nc1N [Compound B]
MIAPACA2T2 cells [1]; [3]
  Computed CI value: 0.533
  Combination Fa: 0.678
MIAPACA2T2 cells [1]; [4]
  Computed CI value: 0.425
  Combination Fa: 0.749
MIAPACA2T2 cells [1]; [5]
  Computed CI value: 0.443
  Combination Fa: 0.781
MIAPACA2T2 cells [1]; [6]
  Computed CI value: 0.535
  Combination Fa: 0.798
MIAPACA2T2 cells [1]; [7]
  Computed CI value: 0.543
  Combination Fa: 0.838
MIAPACA2T2 cells [1]; [8]
  Computed CI value: 0.471
  Combination Fa: 0.887
MIAPACA2T2 cells [1]; [9]
  Computed CI value: 0.83
  Combination Fa: 0.875
MIAPACA2 cells; Compound B 0.018 μM + sotorasib 0.006 μM
  CI score: 0.68
MIAPACA2 cells; Compound B 0.018 μM + sotorasib 0.010 μM
  CI score: 0.73
MIAPACA2 cells; Compound B 0.018 μM + sotorasib 0.015 μM
  CI score: 0.64
MIAPACA2 cells; Compound B 0.018 μM + sotorasib 0.024 μM
  CI score: 0.80
MIAPACA2 cells; Compound B 0.018 μM + sotorasib 0.039 μM
  CI score: 0.77
MIAPACA2 cells; Compound B 0.018 μM + sotorasib 0.063 μM
  CI score: 0.93
MIAPACA2 cells; Compound B 0.018 μM + sotorasib 0.100 μM
  CI score: 1.25
MIAPACA2 cells; Compound B 0.034 μM + sotorasib 0.006 μM
  CI score: 0.55
MIAPACA2 cells; Compound B 0.034 μM + sotorasib 0.010 μM
  CI score: 0.59
MIAPACA2 cells; Compound B 0.034 μM + sotorasib 0.015 μM
  CI score: 0.56
MIAPACA2 cells; Compound B 0.034 μM + sotorasib 0.024 μM
  CI score: 0.76
MIAPACA2 cells; Compound B 0.034 μM + sotorasib 0.039 μM
  CI score: 0.79
MIAPACA2 cells; Compound B 0.034 μM + sotorasib 0.063 μM
  CI score: 0.83
MIAPACA2 cells; Compound B 0.034 μM + sotorasib 0.100 μM
  CI score: 1.43
MIAPACA2 cells; Compound B 0.064 μM + sotorasib 0.006 μM
  CI score: 0.52
MIAPACA2 cells; Compound B 0.064 μM + sotorasib 0.010 μM
  CI score: 0.65
MIAPACA2 cells; Compound B 0.064 μM + sotorasib 0.015 μM
  CI score: 0.68
MIAPACA2 cells; Compound B 0.064 μM + sotorasib 0.024 μM
  CI score: 0.53
MIAPACA2 cells; Compound B 0.064 μM + sotorasib 0.039 μM
  CI score: 0.72
MIAPACA2 cells; Compound B 0.064 μM + sotorasib 0.063 μM
  CI score: 0.75
MIAPACA2 cells; Compound B 0.064 μM + sotorasib 0.100 μM
  CI score: 1.24
MIAPACA2 cells; Compound B 0.121 μM + sotorasib 0.006 μM
  CI score: 0.63
MIAPACA2 cells; Compound B 0.121 μM + sotorasib 0.010 μM
  CI score: 0.71
MIAPACA2 cells; Compound B 0.121 μM + sotorasib 0.015 μM
  CI score: 0.53
MIAPACA2 cells; Compound B 0.121 μM + sotorasib 0.024 μM
  CI score: 0.64
MIAPACA2 cells; Compound B 0.121 μM + sotorasib 0.039 μM
  CI score: 0.67
MIAPACA2 cells; Compound B 0.121 μM + sotorasib 0.063 μM
  CI score: 0.96
MIAPACA2 cells; Compound B 0.121 μM + sotorasib 0.100 μM
  CI score: 1.02
MIAPACA2 cells; Compound B 0.230 μM + sotorasib 0.006 μM
  CI score: 0.65
MIAPACA2 cells; Compound B 0.230 μM + sotorasib 0.010 μM
  CI score: 0.63
MIAPACA2 cells; Compound B 0.230 μM + sotorasib 0.015 μM
  CI score: 0.55
MIAPACA2 cells; Compound B 0.230 μM + sotorasib 0.024 μM
  CI score: 0.51
MIAPACA2 cells; Compound B 0.230 μM + sotorasib 0.039 μM
  CI score: 0.71
MIAPACA2 cells; Compound B 0.230 μM + sotorasib 0.063 μM
  CI score: 0.72
MIAPACA2 cells; Compound B 0.230 μM + sotorasib 0.100 μM
  CI score: 1.00
MIAPACA2 cells; Compound B 0.437 μM + sotorasib 0.006 μM
  CI score: 0.55
MIAPACA2 cells; Compound B 0.437 μM + sotorasib 0.010 μM
  CI score: 0.70
MIAPACA2 cells; Compound B 0.437 μM + sotorasib 0.015 μM
  CI score: 0.52
MIAPACA2 cells; Compound B 0.437 μM + sotorasib 0.024 μM
  CI score: 0.61
MIAPACA2 cells; Compound B 0.437 μM + sotorasib 0.039 μM
  CI score: 0.65
MIAPACA2 cells; Compound B 0.437 μM + sotorasib 0.063 μM
  CI score: 0.67
MIAPACA2 cells; Compound B 0.437 μM + sotorasib 0.100 μM
  CI score: 1.06
MIAPACA2 cells; Compound B 0.831 μM + sotorasib 0.006 μM
  CI score: 0.83
MIAPACA2 cells; Compound B 0.831 μM + sotorasib 0.010 μM
  CI score: 0.85
MIAPACA2 cells; Compound B 0.831 μM + sotorasib 0.015 μM
  CI score: 0.68
MIAPACA2 cells; Compound B 0.831 μM + sotorasib 0.024 μM
  CI score: 0.65
MIAPACA2 cells; Compound B 0.831 μM + sotorasib 0.039 μM
  CI score: 0.75
MIAPACA2 cells; Compound B 0.831 μM + sotorasib 0.063 μM
  CI score: 0.89
MIAPACA2 cells; Compound B 0.831 μM + sotorasib 0.100 μM
  CI score: 1.15
MIAPACA2 cells; Compound B 1.579 μM + sotorasib 0.006 μM
  CI score: 1.30
MIAPACA2 cells; Compound B 1.579 μM + sotorasib 0.010 μM
  CI score: 1.37
MIAPACA2 cells; Compound B 1.579 μM + sotorasib 0.015 μM
  CI score: 0.95
MIAPACA2 cells; Compound B 1.579 μM + sotorasib 0.024 μM
  CI score: 0.91
MIAPACA2 cells; Compound B 1.579 μM + sotorasib 0.039 μM
  CI score: 0.95
MIAPACA2 cells; Compound B 1.579 μM + sotorasib 0.063 μM
  CI score: 0.98
MIAPACA2 cells; Compound B 1.579 μM + sotorasib 0.100 μM
  CI score: 1.25
LU99 NSCLC xenografts
  anti-tumor activity: significant anti-tumor activity versus either single agent alone
PSN1 cells; [10]
  Computed CI value: 0.627
  Combination Fa: 0.778
PSN1 cells; [11]
  Computed CI value: 0.75
  Combination Fa: 0.751
PSN1 cells; [12]
  Computed CI value: 0.594
  Combination Fa: 0.819
PSN1 cells; [13]
  Computed CI value: 0.645
  Combination Fa: 0.825
PSN1 cells; [14]
  Computed CI value: 0.674
  Combination Fa: 0.844
PSN1 cells; [15]
  Computed CI value: 0.778
  Combination Fa: 0.852
PSN1 cells; [16]
  Computed CI value: 0.813
  Combination Fa: 0.88
H292 cells; [17]
  Computed CI value: 0.421
  Combination Fa: 0.6807
H292 cells; [18]
  Computed CI value: 0.403
  Combination Fa: 0.7009
H292 cells; [19]
  Computed CI value: 0.284
  Combination Fa: 0.7704
H292 cells; [20]
  Computed CI value: 0.308
  Combination Fa: 0.7959
H292 cells; [21]
  Computed CI value: 0.395
  Combination Fa: 0.8126
H292 cells; [22]
  Computed CI value: 0.587
  Combination Fa: 0.8205
H292 cells; [23]
  Computed CI value: 0.878
  Combination Fa: 0.8344
UM-UC-3 cells; [24]
  Computed CI value: 1.172
  Combination Fa: 0.5393
UM-UC-3 cells; [25]
  Computed CI value: 1.028
  Combination Fa: 0.6004
UM-UC-3 cells; [26]
  Computed CI value: 0.778
  Combination Fa: 0.6836
UM-UC-3 cells; [27]
  Computed CI value: 0.685
  Combination Fa: 0.7355
UM-UC-3 cells; [28]
  Computed CI value: 0.677
  Combination Fa: 0.7685
UM-UC-3 cells; [29]
  Computed CI value: 0.584
  Combination Fa: 0.8141
MIAPACA2T2 cells [2]; [30]
  Computed CI value: 0.763
  Combination Fa: 0.5368
MIAPACA2T2 cells [2]; [31]
  Computed CI value: 0.591
  Combination Fa: 0.6323
MIAPACA2T2 cells [2]; [32]
  Computed CI value: 0.578
  Combination Fa: 0.7018
MIAPACA2T2 cells [2]; [33]
  Computed CI value: 0.881
  Combination Fa: 0.7173
MIAPACA2T2 cells [2]; [34]
  Computed CI value: 0.826
  Combination Fa: 0.7944
MIAPACA2T2 cells [2]; [35]
  Computed CI value: 1.158
  Combination Fa: 0.8219
MIAPACA2T2 cells [2]; [36]
  Computed CI value: 2.512
  Combination Fa: 0.8073

Source: US20260373156A1, “CANCER TREATMENTS USING MTA-COOPERATIVE PRMT5 INHIBITORS” (AMGEN INC., priority 2022, published 2026)
